One may read the IC50 as the concentration that gives 50% inhibition. The low end stands for inhibition by little substance, the high end for a need for much substance.

The assay has as its target T1, human PDE5 (Homo sapiens, UniProt O76074).
T1 construct: from tissue; host or cells: platelets from fresh blood of human donors (lysate, 10,000 g supernatant)
Put plainly: Inhibition of the type 5 phosphodiesterase (PDE5) activity, modified SPA test with platelet lysate. It counts as biochemical. The settings on record: PDE5 from human platelet lysate, 0.5 μM cGMP. The essentials:
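Human platelet lysate (10,000 g supernatant) as PDE5 source in SPA with 0.5 μM cGMP plus [3H]cGMP tracer, pH 7.4, 5 mM Mg2+, 1 μM motapizone and 10 nM PDE2 inhibitor; 10–20% conversion. 5 min preincubation, 15 min at 37 °C, stopped with SPA beads/IBMX. IC50 by non-linear regression.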
The compound `CC(=O)N1CCC(NC(=O)c2c[nH]c3c(-c4ccccc4OCC4CC4)ncnc23)CC1` [Example 94, 4-(2-Cyclopropylmethoxy-phenyl)-5H-pyrrolo[3,2-d]pyrimidine-7-carboxylic acid (1-acetyl-piperidin-4-yl)-amide] showed an IC50 of 8.71 nM.

Compound `CCOC(=O)N1CCC(NC(=O)c2c[nH]c3c(-c4ccccc4OCC4CC4)ncnc23)CC1` [Example 95, 4-{[4-(2-Cyclopropylmethoxy-phenyl)-5H-pyrrolo[3,2-d]pyrimidine-7-carbonyl]-amino}-piperidine-1-carboxylic acid ethyl ester] showed an IC50 of 3.31 nM.

`O=C(NC1CCN(C(=O)C2CC2)CC1)c1c[nH]c2c(-c3ccccc3OCC3CC3)ncnc12` [Example 96, 4-(2-Cyclopropylmethoxy-phenyl)-5H-pyrrolo[3,2-d]pyrimidine-7-carboxylic acid (1-cyclopropanecarbonyl-piperidin-4-yl)-amide] had an IC50 of 2.14 nM.

Turning to `CCC(=O)N1CCC(NC(=O)c2c[nH]c3c(-c4cc(OC)c(F)cc4OCC4CC4)ncnc23)CC1` [Example 97, 4-(2-Cyclopropylmethoxy-4-fluoro-5-methoxy-phenyl)-5H-pyrrolo[3,2-d]pyrimidine-7-carboxylic acid (1-propionyl-piperidin-4-yl)-amide], the IC50 was 0.117 nM.

As to `COCC(=O)N1CCC(NC(=O)c2c[nH]c3c(-c4cc(OC)c(F)cc4OCC4CC4)ncnc23)CC1` [Example 98, 4-(2-Cyclopropylmethoxy-4-fluoro-5-methoxy-phenyl)-5H-pyrrolo[3,2-d]pyrimidine-7-carboxylic acid [1-(2-methoxy-ethanoyl)-piperidin-4-yl]-amide], half-maximal inhibition (IC50) required 0.219 nM. Against the preceding compound, the IC50 is about 1.9-fold higher.

In the case of `COc1cc(-c2ncnc3c(C(=O)NC4CCN(C(C)=O)CC4)c[nH]c23)c(OCC2CC2)cc1F` [Example 99, 4-(2-Cyclopropylmethoxy-4-fluoro-5-methoxy-phenyl)-5H-pyrrolo[3,2-d]pyrimidine-7-carboxylic acid (1-acetyl-piperidin-4-yl)-amide], it took 0.178 nM to reach half-maximal inhibition (IC50). This IC50 and that of the compound before are within 1.5-fold of each other.

In the case of `COc1cc(-c2ncnc3c(C(=O)N[C@@H]4CCCN(C(C)=O)C4)c[nH]c23)c(OCC2CC2)cc1F` [Example 100, 4-(2-Cyclopropylmethoxy-4-fluoro-5-methoxy-phenyl)-5H-pyrrolo[3,2-d]pyrimidine-7-carboxylic acid ((R)-1-acetyl-piperidin-3-yl)-amide], the IC50 was 0.126 nM. This IC50 and that of the compound before are within 1.5-fold of each other.

In the case of `CCC(=O)N1CCC[C@@H](NC(=O)c2c[nH]c3c(-c4cc(OC)c(F)cc4OCC4CC4)ncnc23)C1` [Example 101, 4-(2-Cyclopropylmethoxy-4-fluoro-5-methoxy-phenyl)-5H-pyrrolo[3,2-d]pyrimidine-7-carboxylic acid ((R)-1-propionyl-piperidin-3-yl)-amide], the IC50 was 0.162 nM.

Take `COCC(=O)N1CCC[C@@H](NC(=O)c2c[nH]c3c(-c4cc(OC)c(F)cc4OCC4CC4)ncnc23)C1` [Example 102, 4-(2-Cyclopropylmethoxy-4-fluoro-5-methoxy-phenyl)-5H-pyrrolo[3,2-d]pyrimidine-7-carboxylic acid [(R)-1-(2-methoxy-acetyl)piperidin-3-yl]-amide]: it took 0.115 nM to reach half-maximal inhibition (IC50).

Compound `CCC(=O)N1CC[C@@H](NC(=O)c2c[nH]c3c(-c4cc(OC)c(F)cc4OCC4CC4)ncnc23)C1` [Example 104, 4-(2-Cyclopropylmethoxy-4-fluoro-5-methoxy-phenyl)-5H-pyrrolo[3,2-d]pyrimidine-7-carboxylic acid ((R)-1-propionyl-pyrrolidin-3-yl)-amide] had an IC50 of 0.234 nM.

`COCC(=O)N1CC[C@@H](NC(=O)c2c[nH]c3c(-c4cc(OC)c(F)cc4OCC4CC4)ncnc23)C1` [Example 105, 4-(2-Cyclopropylmethoxy-4-fluoro-5-methoxy-phenyl)-5H-pyrrolo[3,2-d]pyrimidine-7-carboxylic acid [(R)-1-(2-methoxy-acetyl)-pyrrolidin-3-yl]amide] showed an IC50 of 0.372 nM.

`COc1cc(OCC2CC2)c(-c2ncnc3c(C(=O)N[C@H]4CC[C@H](NC(C)=O)CC4)c[nH]c23)cc1F` [Example 106, trans-4-(2-Cyclopropylmethoxy-5-fluoro-4-methoxy-phenyl)-5H-pyrrolo[3,2-d]pyrimidine-7-carboxylic acid (4-acetylamino-cyclohexyl)-amide] showed an IC50 of 0.891 nM.

The compound `COCC(=O)N[C@H]1CC[C@H](NC(=O)c2c[nH]c3c(-c4cc(F)c(OC)cc4OCC4CC4)ncnc23)CC1` [Example 107, trans-4-(2-Cyclopropylmethoxy-5-fluoro-4-methoxy-phenyl)-5H-pyrrolo[3,2-d]pyrimidine-7-carboxylic acid [4-(2-methoxy-acetylamino)-cyclohexyl]-amide] showed a concentration for half-maximal inhibition (IC50) of 0.537 nM.

With `COc1cc(OCC2CC2)c(-c2ncnc3c(C(=O)NC4CCN(C(C)=O)CC4)c[nH]c23)cc1F` [Example 108, 4-(2-Cyclopropylmethoxy-5-fluoro-4-methoxy-phenyl)-5H-pyrrolo[3,2-d]pyrimidine-7-carboxylic acid (1-acetyl-piperidin-4-yl)-amide], the IC50 was 0.661 nM.

As to `COCC(=O)N1CCC(NC(=O)c2c[nH]c3c(-c4cc(F)c(OC)cc4OCC4CC4)ncnc23)CC1` [Example 109, 4-(2-Cyclopropylmethoxy-5-fluoro-4-methoxy-phenyl)-5H-pyrrolo[3,2-d]pyrimidine-7-carboxylic acid [1-(2-methoxy-ethanoyl)-piperidin-4-yl]amide], the midpoint of inhibition, the IC50, lay at 0.692 nM.

`CCC(=O)N1CCC(NC(=O)c2c[nH]c3c(-c4cc(F)c(OC)cc4OCC4CC4)ncnc23)CC1` [Example 110, 4-(2-Cyclopropylmethoxy-5-fluoro-4-methoxy-phenyl)-5H-pyrrolo[3,2-d]pyrimidine-7-carboxylic acid (1-propionyl-piperidin-4-yl)-amide]: the IC50 was 0.214 nM.

On to `CCC(=O)N1CCC[C@@H](NC(=O)c2c[nH]c3c(-c4cc(F)c(OC)cc4OCC4CC4)ncnc23)C1` [Example 111, 4-(2-Cyclopropylmethoxy-5-fluoro-4-methoxy-phenyl)-5H-pyrrolo[3,2-d]pyrimidine-7-carboxylic acid ((R)-1-propionyl-piperidin-3-yl)-amide], for which it took 0.105 nM to reach half-maximal inhibition (IC50).

Compound `COCC(=O)N1CCC[C@@H](NC(=O)c2c[nH]c3c(-c4cc(F)c(OC)cc4OCC4CC4)ncnc23)C1` [Example 112, 4-(2-Cyclopropylmethoxy-5-fluoro-4-methoxy-phenyl)-5H-pyrrolo[3,2-d]pyrimidine-7-carboxylic acid [(R)-1-(2-methoxy-ethanoyl)-piperidin-3-yl]amide] had a 50% inhibitory concentration (IC50) of 0.138 nM.

As for `COc1cc(OCC2CC2)c(-c2ncnc3c(C(=O)N[C@@H]4CCCN(C(C)=O)C4)c[nH]c23)cc1F` [Example 113, 4-(2-Cyclopropylmethoxy-5-fluoro-4-methoxy-phenyl)-5H-pyrrolo[3,2-d]pyrimidine-7-carboxylic acid ((R)-1-acetyl-piperidin-3-yl)-amide], the IC50 was 0.2 nM.

`CCC(=O)N1CCC[C@H](NC(=O)c2c[nH]c3c(-c4cc(F)c(OC)cc4OCC4CC4)ncnc23)C1` [Example 114, 4-(2-Cyclopropylmethoxy-5-fluoro-4-methoxy-phenyl)-5H-pyrrolo[3,2-d]pyrimidine-7-carboxylic acid ((S)-1-propionyl-piperidin-3-yl)-amide] had an IC50 of 2.24 nM.

`COCC(=O)N1CCC[C@H](NC(=O)c2c[nH]c3c(-c4cc(F)c(OC)cc4OCC4CC4)ncnc23)C1` [Example 115, 4-(2-Cyclopropylmethoxy-5-fluoro-4-methoxy-phenyl)-5H-pyrrolo[3,2-d]pyrimidine-7-carboxylic acid [(S)-1-(2-methoxy-ethanoyl)-piperidin-3-yl]amide]: the IC50 was 3.8 nM. This IC50 lies about 1.7-fold higher than the previous one.

`COc1cc(OCC2CC2)c(-c2ncnc3c(C(=O)N[C@H]4CCCN(C(C)=O)C4)c[nH]c23)cc1F` [Example 116, 4-(2-Cyclopropylmethoxy-5-fluoro-4-methoxy-phenyl)-5H-pyrrolo[3,2-d]pyrimidine-7-carboxylic acid ((S)-1-acetyl-piperidin-3-yl)-amide] showed an IC50 of 3.09 nM.

With `COc1cc(OCC2CC2)c(-c2ncnc3c(C(=O)N[C@@H]4CCN(C(C)=O)C4)c[nH]c23)cc1F` [Example 117, 4-(2-Cyclopropylmethoxy-5-fluoro-4-methoxy-phenyl)-5H-pyrrolo[3,2-d]pyrimidine-7-carboxylic acid ((R)-1-acetyl-pyrrolidin-3-yl)-amide], the 50% inhibitory concentration (IC50) was 1.1 nM.

`CCC(=O)N1CC[C@@H](NC(=O)c2c[nH]c3c(-c4cc(F)c(OC)cc4OCC4CC4)ncnc23)C1` [Example 118, 4-(2-Cyclopropylmethoxy-5-fluoro-4-methoxy-phenyl)-5H-pyrrolo[3,2-d]pyrimidine-7-carboxylic acid ((R)-1-propionyl-pyrrolidin-3-yl)-amide] had an IC50 of 0.501 nM.

`COCC(=O)N1CC[C@@H](NC(=O)c2c[nH]c3c(-c4cc(F)c(OC)cc4OCC4CC4)ncnc23)C1` [Example 119, 4-(2-Cyclopropylmethoxy-5-fluoro-4-methoxy-phenyl)-5H-pyrrolo[3,2-d]pyrimidine-7-carboxylic acid [(R)-1-(2-methoxy-acetyl)-pyrrolidin-3-yl]amide] had an IC50 of 1.2 nM. Against the preceding compound, the IC50 is about 2.4-fold higher.

As to `CC(=O)N[C@H]1CC[C@H](NC(=O)c2c[nH]c3c(-c4cc(C)ccc4OCC4CC4)ncnc23)CC1` [Example 120, trans-4-(2-Cyclopropylmethoxy-5-methyl-phenyl)-5H-pyrrolo[3,2-d]pyrimidine-7-carboxylic acid (4-acetylamino-cyclohexyl)-amide], the IC50 was 1.2 nM. That is a single-digit nanomolar value.

For `COCC(=O)N[C@H]1CC[C@H](NC(=O)c2c[nH]c3c(-c4cc(C)ccc4OCC4CC4)ncnc23)CC1` [Example 121, trans-4-(2-Cyclopropylmethoxy-5-methyl-phenyl)-5H-pyrrolo[3,2-d]pyrimidine-7-carboxylic acid [4-(2-methoxy-acetylamino)-cyclohexyl]-amide], half-maximal inhibition (IC50) was put at 1.78 nM.

These data come from US8445501B2, “Substituted 7-carboxamido-pyrrolo[3,2-d]pyrimidines” (Takeda GmbH, priority 2008, dated 2013).
